From ChEMBL document CHEMBL1201862, “PubChem BioAssay data set” (2004)
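These data come from cells grown in 96-well plates and exposed to compound for 48 hours at five concentrations. The concentration for 50% growth inhibition is given as GI50.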 Activity calls are given as the source filed them. Cut-off read from the data, not from the text of the source: active = GI50 up to about 1.1 µM and inactive = higher.

What was measured:
Assay in all cases: growth of human tumour cells (NCI), 48 h
[1] = tested on: A549
[2] = tested on: ACHN
[3] = tested on: CAKI-1
[4] = tested on: CCRF-CEM
[5] = tested on: COLO 205
[6] = tested on: DU-145
[7] = tested on: HCT-15
[8] = tested on: HL-60
[9] = tested on: Hs-578T
[10] = tested on: KM12
[11] = tested on: MDA-MB-231
[12] = tested on: MDA-MB-435
[13] = tested on: Malme-3M
[14] = tested on: NCI-H460
[15] = tested on: NCI-H522
[16] = tested on: RPMI-8226
[17] = tested on: SF-539
[18] = tested on: SK-MEL-2
[19] = tested on: SN12C
[20] = tested on: UACC-62

Structure (SMILES) | GI50 [1] | GI50 [2] | GI50 [3] | GI50 [4] | GI50 [5] | GI50 [6] | GI50 [7] [µM] | GI50 [8] | GI50 [9] | GI50 [10] | GI50 [11] | GI50 [12] | GI50 [13] | GI50 [14] | GI50 [15] | GI50 [16] | GI50 [17] | GI50 [18] | GI50 [19] | GI50 [20]
C=CCC(CC=O)(C(=O)OCC)C(=O)OCC | > 100 µM (inactive) | > 100 µM (inactive) | > 100 µM (inactive) | > 100 µM (inactive) | > 100 µM (inactive) | > 100 µM (inactive) | > 100 | 86.1 µM (inactive) | > 100 µM (inactive) | > 100 µM (inactive) | > 100 µM (inactive) | > 100 µM (inactive) | > 100 µM (inactive) | > 100 µM (inactive) | > 100 µM (inactive) | > 100 µM (inactive) | > 100 µM (inactive) | > 100 µM (inactive) | > 100 µM (inactive) | > 100 µM (inactive)
CC1(C)C2CC(O)C1CCC2=O (stereo not given) | > 100 µM (inactive) | > 100 µM (inactive) | > 100 µM (inactive) | > 100 µM (inactive) | > 100 µM (inactive) | > 100 µM (inactive) | > 100 | > 100 µM (inactive) | > 100 µM (inactive) | > 100 µM (inactive) | > 100 µM (inactive) | > 100 µM (inactive) | > 100 µM (inactive) | > 100 µM (inactive) | > 100 µM (inactive) | > 100 µM (inactive) | > 100 µM (inactive) | > 100 µM (inactive) | > 100 µM (inactive) | > 100 µM (inactive)
CC1(C)O[C@H]([C@H](O)c2nnc3ccc(Cl)nn23)[C@@H]([C@H]2COC(C)(C)O2)O1 | > 100 µM (inactive) | > 100 µM (inactive) | > 100 µM (inactive) | > 100 µM (inactive) | > 100 µM (inactive) | > 100 µM (inactive) | > 100 | > 100 µM (inactive) | > 100 µM (inactive) | > 100 µM (inactive) | > 100 µM (inactive) | > 100 µM (inactive) | > 100 µM (inactive) | > 100 µM (inactive) | > 100 µM (inactive) | > 100 µM (inactive) | > 100 µM (inactive) | > 100 µM (inactive) | > 100 µM (inactive) | > 100 µM (inactive)
Cc1ccc(C(CCO)CCO)nc1 | > 100 µM (inactive) | > 100 µM (inactive) | > 100 µM (inactive) | > 100 µM (inactive) | > 100 µM (inactive) | > 100 µM (inactive) | > 100 | > 100 µM (inactive) | > 100 µM (inactive) | > 100 µM (inactive) | > 100 µM (inactive) | > 100 µM (inactive) | > 100 µM (inactive) | > 100 µM (inactive) | > 100 µM (inactive) | > 100 µM (inactive) | > 100 µM (inactive) | > 100 µM (inactive) | > 100 µM (inactive) | > 100 µM (inactive)
CCOC(=O)c1c(N2CCN(C)CC2)[nH]c(=O)c(C(c2c(Cl)cccc2Cl)c2c(O)c(C(=O)OCC)c(N3CCN(C)CC3)[nH]c2=O)c1O | 27.9 µM (inactive) | 20.7 µM (inactive) | 26.5 µM (inactive) | 31 µM (inactive) | 33.1 µM (inactive) | 17.8 µM (inactive) | 30.7 | 19.5 µM (inactive) | 33.8 µM (inactive) | 23.5 µM (inactive) | 25.5 µM (inactive) | 25.8 µM (inactive) | 22.6 µM (inactive) | 28.1 µM (inactive) | 21.9 µM (inactive) | 39.2 µM (inactive) | 19.4 µM (inactive) | 26 µM (inactive) | 26.3 µM (inactive) | 21.5 µM (inactive)
Cn1c2cc(Cl)ccc2c2ccc3c(c21)C(=O)C=CC3=O | > 100 µM (inactive) | 16.8 µM (inactive) | 13.5 µM (inactive) | 3.68 µM (inactive) | 13.8 µM (inactive) | > 57 µM (inactive) | 22.4 | 13.5 µM (inactive) | 46.9 µM (inactive) | > 100 µM (inactive) | 26.9 µM (inactive) | 25.4 µM (inactive) | 16.5 µM (inactive) | > 100 µM (inactive) | 8.13 µM (inactive) | 5.57 µM (inactive) | > 55 µM (inactive) | 33.3 µM (inactive) | 14 µM (inactive) | 21.5 µM (inactive)
O=C1/C(=C/c2ccccc2)CCC/C1=C\c1ccc(O)c(CN2CCCCC2)c1 | 7.59 µM (inactive) | 1.81 µM (inactive) | 8.07 µM (inactive) | 3.3 µM (inactive) | 5.89 µM (inactive) | 2.62 µM (inactive) | 1.78 | 3.49 µM (inactive) | 3.93 µM (inactive) | 0.933 µM (active) | 2.77 µM (inactive) | 2.55 µM (inactive) | 11.4 µM (inactive) | 4.66 µM (inactive) | 2.24 µM (inactive) | 3.27 µM (inactive) | 2.95 µM (inactive) | 11.9 µM (inactive) | 2.82 µM (inactive) | 3.59 µM (inactive)
CN(C)CCCCN1c2ccccc2Sc2cc(N=[N+]=[N-])ccc21 | 1.79 µM (inactive) | 1.99 µM (inactive) | 1.84 µM (inactive) | 2.01 µM (inactive) | 1.69 µM (inactive) | 2.1 µM (inactive) | 1.85 | 2.11 µM (inactive) | 3.03 µM (inactive) | 1.73 µM (inactive) | 1.71 µM (inactive) | 1.67 µM (inactive) | 1.82 µM (inactive) | 1.89 µM (inactive) | 1.6 µM (inactive) | 2.38 µM (inactive) | 1.96 µM (inactive) | 1.97 µM (inactive) | 3.48 µM (inactive) | 1.85 µM (inactive)
C=C(C1=CC(=O)C(C)(C)O1)[C@@H]1CC=C([C@@H]2CC[C@H]3[C@@]2(C)CC[C@H]2C(C)(C)C(=O)[C@H](OC(=O)CC(C)(O)CC(=O)O)C[C@]32C)[C@H](O)O1 (stereo not given in full) | 17.6 µM (inactive) | 14 µM (inactive) | 17.2 µM (inactive) | 2.19 µM (inactive) | 12.5 µM (inactive) | 16.7 µM (inactive) | 13.3 | 17.7 µM (inactive) | 23.9 µM (inactive) | 14.1 µM (inactive) | 17.4 µM (inactive) | 15.1 µM (inactive) | 13.4 µM (inactive) | 15.9 µM (inactive) | 11.4 µM (inactive) | 2.48 µM (inactive) | 13 µM (inactive) | 12.9 µM (inactive) | 15.3 µM (inactive) | 12.1 µM (inactive)
CO/C(N)=C(C#N)/N=C/c1ccccc1 | > 100 µM (inactive) | > 100 µM (inactive) | > 100 µM (inactive) | 50 µM (inactive) | 71.9 µM (inactive) | > 100 µM (inactive) | > 100 | 35.7 µM (inactive) | > 100 µM (inactive) | > 100 µM (inactive) | > 100 µM (inactive) | > 100 µM (inactive) | 40.3 µM (inactive) | > 100 µM (inactive) | > 100 µM (inactive) | > 100 µM (inactive) | > 100 µM (inactive) | > 100 µM (inactive) | > 100 µM (inactive) | 48 µM (inactive)
O=C(O)/C(=C/C(=O)c1ccc(Cl)cc1)NNc1ccc([N+](=O)[O-])cc1[N+](=O)[O-] | 40.6 µM (inactive) | 31.8 µM (inactive) | 24.8 µM (inactive) | 23.6 µM (inactive) | > 100 µM (inactive) | 47.2 µM (inactive) | 48.3 | 49.3 µM (inactive) | 31.2 µM (inactive) | 51.8 µM (inactive) | 36.8 µM (inactive) | 67.9 µM (inactive) | 30.5 µM (inactive) | 34.3 µM (inactive) | 21.6 µM (inactive) | 28.5 µM (inactive) | 35.3 µM (inactive) | 31.7 µM (inactive) | 41.8 µM (inactive) | 38.7 µM (inactive)
O=[N+]([O-])c1ccc(-n2nc3ccc4nonc4c3n2)cc1 | 72.1 µM (inactive) | 41.3 µM (inactive) | 22.7 µM (inactive) | > 100 µM (inactive) | > 100 µM (inactive) | 79.6 µM (inactive) | > 100 | > 100 µM (inactive) | 13.3 µM (inactive) | 94.8 µM (inactive) | > 100 µM (inactive) | > 100 µM (inactive) | 24.2 µM (inactive) | 37.3 µM (inactive) | 28.8 µM (inactive) | > 100 µM (inactive) | 44.8 µM (inactive) | 47.9 µM (inactive) | > 100 µM (inactive) | 32.5 µM (inactive)
O=C1c2c(nc3ccccc3c2-c2ccccc2)CN1Nc1ccccn1 | 59.4 µM (inactive) | 43.7 µM (inactive) | 47.3 µM (inactive) | 79.1 µM (inactive) | > 100 µM (inactive) | 67.9 µM (inactive) | > 75.5 | 97.9 µM (inactive) | 21.2 µM (inactive) | 76 µM (inactive) | > 100 µM (inactive) | > 100 µM (inactive) | 78.3 µM (inactive) | 40.6 µM (inactive) | > 78.3 µM (inactive) | 76.9 µM (inactive) | > 75.2 µM (inactive) | > 100 µM (inactive) | 53.6 µM (inactive) | > 83 µM (inactive)
O=C1/C(=N\NC(=S)NC2CCCCC2)c2cc([N+](=O)[O-])ccc2N1CN1CCOCC1 | 4.05 µM (inactive) | 5.11 µM (inactive) | 3.3 µM (inactive) | 0.382 µM (active) | 5.32 µM (inactive) | 11 µM (inactive) | 2.39 | 3.32 µM (inactive) | 15 µM (inactive) | 4.81 µM (inactive) | 15.8 µM (inactive) | 6.79 µM (inactive) | 11.4 µM (inactive) | 2.55 µM (inactive) | 10 µM (inactive) | 11.3 µM (inactive) | 11.4 µM (inactive) | 11.7 µM (inactive) | 3.72 µM (inactive) | 7.89 µM (inactive)
